The text below walks through data of PubChem BioAssay AID1159558 (GlaxoSmithKline (GSK), 2015).

Each structure is given as a SMILES string. The source made the active and inactive calls.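 Rule for the calls: active = IC50 against T. cruzi CYP51 below a set limit; inactive = the rest.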

Chain of Sterol 14-alpha demethylase (Trypanosoma cruzi (strain CL Brener)) (Q7Z1V1 whole entry, looked up): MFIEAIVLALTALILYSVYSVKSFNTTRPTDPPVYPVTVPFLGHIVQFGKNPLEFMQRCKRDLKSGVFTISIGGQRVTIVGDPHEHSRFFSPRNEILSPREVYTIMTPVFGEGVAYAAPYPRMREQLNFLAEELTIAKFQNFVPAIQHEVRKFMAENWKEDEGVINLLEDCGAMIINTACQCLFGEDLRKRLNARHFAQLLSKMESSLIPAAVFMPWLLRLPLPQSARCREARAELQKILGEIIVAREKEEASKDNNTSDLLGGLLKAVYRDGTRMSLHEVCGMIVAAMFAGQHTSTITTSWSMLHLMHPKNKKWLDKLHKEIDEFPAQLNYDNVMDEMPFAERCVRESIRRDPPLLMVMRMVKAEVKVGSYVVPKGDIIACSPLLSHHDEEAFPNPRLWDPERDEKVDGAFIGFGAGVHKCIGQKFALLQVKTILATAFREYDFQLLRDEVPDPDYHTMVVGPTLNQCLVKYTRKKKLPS

The experiment addresses Sterol 14-alpha demethylase (Trypanosoma cruzi (strain CL Brener)) (UniProt Q7Z1V1). In words: T. cruzi sterol 14-alpha demethylase inhibition – biochemical, recombinant enzyme, mechanism study for T. cruzi antiparasitic project, dose response (AID 1159558).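 Note: enzyme in bacterial membranes with Anopheles gambiae CYP reductase and cytochrome b5 partners.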 Conditions: recombinant T. cruzi CYP51, BOMCC fluorescence.
One may read the IC50 as the concentration that gives 50% inhibition. For `CC(Cn1ccnc1)NC(=O)C1CC1c1cccc(Cl)c1Cl` (stereo unspecified), the IC50 is 0.13 µM.
As for `Clc1cc(Br)ccc1OCCCCn1ccnc1`, the figure is 0.063 µM; as for `COc1ccc(-c2cnc(NC(=O)c3cc(-c4ccccn4)n[nH]3)n2C)cc1`, 16 µM; as for `O=C(Nc1nc(-c2ccccn2)cs1)C1CCc2ccccc2C1` (stereo unspecified), 25 µM.
With `COc1cc(-c2nc(N3CCOCC3)sc2-c2ccnc(NC3CCOCC3)n2)ccc1Cl`, the IC50 was > 100 µM (inactive).
The figure for `O=C(CN(Cc1ccccn1)Cc1ccccn1)NC1Cc2ccccc2C1` is 79 µM; for `Cc1ccnc(NS(=O)(=O)c2ccc(NC(=O)c3ccc([N+](=O)[O-])s3)cc2)n1` it is 63 µM.
`CNC(=O)Oc1ccc(C(=O)NCc2ccccc2)cc1OC(=O)NC`: the IC50 is > 100 µM (inactive).
As to `COc1ccc(NS(=O)(=O)c2cc(NC(=O)c3ccc([N+](=O)[O-])s3)ccc2OC)cc1`, the IC50 is 1 µM.
For the compound `Nc1nonc1-c1nc2cncc(C(=O)N3CC[C@H](N)C3)c2n1CC1CC1`, the IC50 was 13 µM.
As for `CCc1ccccc1[C@@H](C)NC(=O)c1cnc2c(cnn2CC)c1NC1CCN(C(N)=O)CC1`, the figure is 79 µM; as for `CC(C)(C)c1csc(NC(=O)c2ccc([N+](=O)[O-])s2)n1`, 7.9 µM; as for `CCN(Cc1ccncc1)Cc1ccc(NC(=O)c2cc(-c3ccc(F)cc3)n[nH]2)cc1`, 0.079 µM.
For `O=C(Nc1ccccc1C(=O)Nc1ccccn1)c1ccco1`, the IC50 is > 100 µM (inactive).
As to `COc1cc(Cl)c(C)cc1NC(=O)c1ccc([N+](=O)[O-])s1`, the IC50 was 16 µM.
The figure for `CC(Cn1ccnc1)NC(=O)COc1ccc(Cl)c(Cl)c1` (stereo unspecified) is 0.063 µM; for `COc1ccc(-c2ccc3nnc(-c4ccc(O)c(OC)c4)n3c2)cn1` it is > 100 µM (inactive); for `Cc1cnc(Nc2cc(Cc3ccccc3)nc(NC3CCC(O)CC3)n2)s1` (stereo unspecified) it is > 100 µM (inactive).
As for `NCc1ccc2c(Cl)cc(Cl)c(O)c2n1`, the figure is 40 µM.
The figure for `O=C(Nc1ccc(S(=O)(=O)N2CCCC2)cc1)c1ccc([N+](=O)[O-])s1` is > 100 µM (inactive); for `Cc1nnnn1-c1cccc(C(=O)N2CCC[C@@]3(C)c4ncncc4CCC23)c1` (stereo partly specified) it is 25 µM.
Take `O=C(Nc1ccc(-c2nc3ccccc3c(=O)[nH]2)cc1)c1cccs1`: the IC50 is > 100 µM (inactive).
As to `Cc1nc2c(-c3n[nH]c(-c4ccccc4N)n3)cccn2c1C`, the IC50 was 3.2 µM.
As for `CCN(Cc1cccs1)C(=O)CSc1nnc(-c2ccc3c(c2)OCO3)o1`, the figure is 7.9 µM.
The figure for `CCc1cc(C(=O)Nc2nccn2-c2ccccc2)cs1` is > 100 µM (inactive); for `Cc1nc(N2CCC(C(=O)N3CCC(O)(c4cccnc4)CC3)CC2)nc2ccc(C(C)C)cc12` it is 0.13 µM.
The figure for `CCC1Oc2cc(S(=O)(=O)N(C)CC(=O)N3CCc4ccccc4C3)c(C)cc2NC1=O` (stereo unspecified) is 0.79 µM; for `O=C1CN(C2CCCc3c(OCc4ccncc4)cccc32)C(=O)N1C1CCCCC1` (stereo unspecified) it is 0.02 µM.
Turning to `O=[N+]([O-])c1cccc(Nc2cncc(-c3ccccc3CO)c2)c1`, the IC50 was 3.2 µM.
Regarding `O=S(=O)(c1cccc(CSc2nnc(-c3ccc4c(c3)OCO4)o2)c1)N1CCOCC1`, the IC50 is 13 µM.
The figure for `CNc1cc(Cn2c(C(=O)c3cc(C)cc(Cl)c3)c(C(C)C)c(=O)[nH]c2=O)ccn1` is 0.032 µM; for `O=[N+]([O-])c1ccc(-c2nnn(-c3ccc(Cl)cc3)n2)o1` it is > 100 µM (inactive).
The figure for `O=C(NCCc1ccccn1)C(c1cn[nH]c1)N1CCN(c2ccc(Cl)c(Cl)c2)CC1` (stereo unspecified) is 0.13 µM; for `O=C(NCCc1csc(-c2ccc(F)cc2)n1)c1ccco1` it is > 100 µM (inactive).
As for `OCC1CCCCN1c1cc(-c2ccccn2)nc(Nc2ccccc2)n1` (stereo unspecified), the figure is 79 µM; as for `CN1CCN(c2nc(-c3ccc(Cl)cc3)c3c(N)n(C)nc3n2)CC1`, > 100 µM (inactive).
